From PubChem BioAssay AID248 (DTP/NCI, 2004)
“And” between values parts separate entries of the source, which are not always exact repeats. Identical values can stand only once. Toxic doses and inconclusive results are not listed. Rule as the data show it: active = T/C of 150% or more; inactive = T/C below 125%.

Test system: L1210 leukemia ip in BDF1 mice, survival T/C
Test: NCI In Vivo Anticancer Drug Screen. Data for tumor model L1210 Leukemia (intraperitoneal) in B6D2F1 (BDF1) mice
Details: endpoint: mean survival time, higher = longer survival
Method in brief: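 Survival endpoint. Drug-treated group vs vehicle group, expressed as T divided by C. Tumor passaged by transplantation.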

[1] = dose: 100.0 mg/kg/injection, schedule: Q01DX001 (ip), vehicle: Klucel (hydroxypropylcellulose) (HPC)
[2] = dose: 100.0 mg/kg/injection, schedule: Q04DX002 (ip), vehicle: Klucel (hydroxypropylcellulose) (HPC)
[3] = dose: 100.0 mg/kg/injection, schedule: Q04DX003 (ip), vehicle: Klucel (hydroxypropylcellulose) (HPC)
[4] = dose: 200.0 mg/kg/injection, schedule: Q01DX001 (ip), vehicle: Klucel (hydroxypropylcellulose) (HPC)
[5] = dose: 200.0 mg/kg/injection, schedule: Q04DX002 (ip), vehicle: Klucel (hydroxypropylcellulose) (HPC)
[6] = dose: 200.0 mg/kg/injection, schedule: Q04DX003 (ip), vehicle: Klucel (hydroxypropylcellulose) (HPC)
[7] = dose: 400.0 mg/kg/injection, schedule: Q01DX001 (ip), vehicle: Klucel (hydroxypropylcellulose) (HPC)
[8] = dose: 400.0 mg/kg/injection, schedule: Q04DX002 (ip), vehicle: Klucel (hydroxypropylcellulose) (HPC)
[9] = dose: 400.0 mg/kg/injection, schedule: Q04DX003 (ip), vehicle: Klucel (hydroxypropylcellulose) (HPC)
[10] = dose: 100.0 mg/kg/injection, schedule: Q04DX002 (ip), vehicle: saline with Tween-80
[11] = dose: 50.0 mg/kg/injection, schedule: Q01DX001 (ip), vehicle: saline
[12] = dose: 100.0 mg/kg/injection, schedule: Q01DX001 (ip), vehicle: saline
[13] = dose: 200.0 mg/kg/injection, schedule: Q01DX001 (ip), vehicle: saline
[14] = dose: 100.0 mg/kg/injection, schedule: Q04DX003 (ip), vehicle: saline with Tween-80
[15] = dose: 200.0 mg/kg/injection, schedule: Q04DX003 (ip), vehicle: saline with Tween-80
[16] = dose: 400.0 mg/kg/injection, schedule: Q04DX003 (ip), vehicle: saline with Tween-80
[17] = dose: 100.0 mg/kg/injection, schedule: Q04DX003 (ip), vehicle: saline
[18] = dose: 200.0 mg/kg/injection, schedule: Q04DX003 (ip), vehicle: saline
[19] = dose: 400.0 mg/kg/injection, schedule: Q04DX003 (ip), vehicle: saline
[20] = dose: 50.0 mg/kg/injection, schedule: Q01DX009 (ip), vehicle: saline with Tween-80
[21] = dose: 100.0 mg/kg/injection, schedule: Q01DX009 (ip), vehicle: saline with Tween-80

Measured: T/C

NC(N)=N/N=C/c1c(O)ccc2ccccc12
inactive: dose: 15.0 mg/kg/injection, schedule: Q01DX Z (ip), vehicle: saline 99 % of control | dose: 15.6 mg/kg/injection, schedule: Q01DX010 (oral), vehicle: saline 117 % of control | dose: 31.0 mg/kg/injection, schedule: Q01DX Z (ip), vehicle: saline 94 % of control | dose: 31.3 mg/kg/injection, schedule: Q01DX010 (oral), vehicle: saline 118 % of control | dose: 63.0 mg/kg/injection, schedule: Q01DX Z (ip), vehicle: saline 86 % of control

Cc1nc(N)[nH]c(=O)c1CCCCC#N
inactive: [1] 100 % of control | dose: 100.0 mg/kg/injection, schedule: Q01DX009 (ip), vehicle: Klucel (hydroxypropylcellulose) (HPC) 93 % of control and 106 % of control | [2] 100 % of control and 102 % of control | [3] 97 % of control | [4] 100 % of control | dose: 200.0 mg/kg/injection, schedule: Q01DX009 (ip), vehicle: Klucel (hydroxypropylcellulose) (HPC) 95 % of control and 100 % of control | [5] 102 % of control and 107 % of control | [6] 111 % of control | [7] 100 % of control | dose: 400.0 mg/kg/injection, schedule: Q01DX009 (ip), vehicle: Klucel (hydroxypropylcellulose) (HPC) 117 % of control | [8] 100 % of control and 104 % of control | [9] 102 % of control

CN(C)N=Nc1ccc(-c2nnco2)cc1
inactive: [10] 110 % of control | dose: 200.0 mg/kg/injection, schedule: Q04DX002 (ip), vehicle: saline with Tween-80 106 % of control | dose: 400.0 mg/kg/injection, schedule: Q04DX002 (ip), vehicle: saline with Tween-80 119 % of control

Cc1ccc(S(=O)(=O)NC(=S)Nc2ccccc2)cc1
inactive: [11] 98 % of control | dose: 50.0 mg/kg/injection, schedule: Q01DX009 (ip), vehicle: saline 102 % of control | [12] 101 % of control | dose: 100.0 mg/kg/injection, schedule: Q01DX009 (ip), vehicle: saline 95 % of control | [13] 101 % of control | dose: 200.0 mg/kg/injection, schedule: Q01DX009 (ip), vehicle: saline 109 % of control

c1ccc2c(CCNC3=NCCO3)c[nH]c2c1
inactive: dose: 50.0 mg/kg/injection, schedule: Q04DX002 (ip), vehicle: saline with Tween-80 91 % of control | [10] 91 % of control | [3] 94 % of control | [6] 108 % of control | [9] 94 % of control

CC(=O)c1c(C)cc(C)nc1C
inactive: [12] 96 % of control | [13] 102 % of control

O=C(Nc1ccc(Cl)c(Cl)c1)Nc1ccc(Cl)c(Cl)c1
inactive: [2] 100 % of control | [5] 90 % of control | [8] 86 % of control

O=[N+]([O-])c1ccc(C(=Nc2ccccc2)Nc2ccccc2)cc1
inactive: [14] 101 % of control | [15] 98 % of control | [16] 98 % of control

O=C(Nc1ccc(Cl)cc1)Oc1c(Cl)cc(Cl)c(Cl)c1[N+](=O)[O-]
inactive: dose: 100.0 mg/kg/injection, schedule: Q04DX002 (ip), vehicle: gum acacia 94 % of control | dose: 200.0 mg/kg/injection, schedule: Q04DX002 (ip), vehicle: gum acacia 88 % of control

COc1cc(/C=N/NC(=O)N/N=C/c2cc(OC)c(OC)c(OC)c2)cc(OC)c1OC
inactive: [3] 105 % of control | [6] 105 % of control | [9] 108 % of control

O=P(NC12CC3CC(CC(C3)C1)C2)(c1ccccc1)N1CC1 (centres undefined)
inactive: [3] 86 % of control | [6] 88 % of control | [9] 89 % of control

CC1=C(C)CP(C)(=O)C1
inactive: [14] 93 % of control | [15] 91 % of control | [16] 86 % of control

CCOC(=O)c1cnc2ccc(OC)cc2c1
inactive: dose: 50.0 mg/kg/injection, schedule: Q01DX009 (ip), vehicle: saline + alcohol 111 % of control | dose: 100.0 mg/kg/injection, schedule: Q01DX009 (ip), vehicle: saline + alcohol 93 % of control | [17] 96 % of control | dose: 200.0 mg/kg/injection, schedule: Q01DX009 (ip), vehicle: saline + alcohol 98 % of control | [18] 105 % of control | dose: 400.0 mg/kg/injection, schedule: Q01DX009 (ip), vehicle: saline + alcohol 93 % of control | [19] 94 % of control

O=[N+]([O-])c1ccc2c(ccn2C2OCC(O)C(O)C2O)c1 (centres undefined)
inactive: dose: 25.0 mg/kg/injection, schedule: Q01DX005 (ip), vehicle: saline 94 % of control and 96 % of control | dose: 50.0 mg/kg/injection, schedule: Q01DX005 (ip), vehicle: saline 96 % of control and 92 % of control | [20] 98 % of control | dose: 100.0 mg/kg/injection, schedule: Q01DX005 (ip), vehicle: saline 93 % of control and 91 % of control | [21] 98 % of control | dose: 200.0 mg/kg/injection, schedule: Q01DX009 (ip), vehicle: saline with Tween-80 102 % of control | dose: 400.0 mg/kg/injection, schedule: Q01DX009 (ip), vehicle: saline with Tween-80 111 % of control

O=C1OCCN1C(=O)c1ccc(C(=O)N2CCOC2=O)cc1
inactive: [1] 94 % of control | dose: 100.0 mg/kg/injection, schedule: Q01DX007 (ip), vehicle: Klucel (hydroxypropylcellulose) (HPC) 89 % of control | [3] 97 % of control | [4] 87 % of control | dose: 200.0 mg/kg/injection, schedule: Q01DX007 (ip), vehicle: Klucel (hydroxypropylcellulose) (HPC) 92 % of control | [6] 101 % of control | [7] 92 % of control | dose: 400.0 mg/kg/injection, schedule: Q01DX007 (ip), vehicle: Klucel (hydroxypropylcellulose) (HPC) 90 % of control | [9] 95 % of control

CC(C)(C)C12N=NCC1C(=O)C1(C(C)(C)C)OC1C2=O (centres undefined)
inactive: dose: 100.0 mg/kg/injection, schedule: Q01DX001 (ip), vehicle: saline with Tween-80 102 % of control | dose: 200.0 mg/kg/injection, schedule: Q01DX001 (ip), vehicle: saline with Tween-80 97 % of control | dose: 400.0 mg/kg/injection, schedule: Q01DX001 (ip), vehicle: saline with Tween-80 94 % of control

CSc1ccc(OC(=O)Nc2ccccc2F)cc1
inactive: [20] 108 % of control | [21] 103 % of control

Nc1ncnc2c1ncn2C1OC(CO)C(O)C1N (centres undefined)
inactive: dose: 50.0 mg/kg/injection, schedule: Q01DX001 (ip), vehicle: carboxymethylcellulose (CMC) 100 % of control | [11] 103 % of control and 108 % of control | dose: 100.0 mg/kg/injection, schedule: Q01DX001 (ip), vehicle: carboxymethylcellulose (CMC) 110 % of control | [12] 98 % of control and 103 % of control | dose: 200.0 mg/kg/injection, schedule: Q01DX001 (ip), vehicle: carboxymethylcellulose (CMC) 100 % of control | [13] 90 % of control and 108 % of control | dose: 400.0 mg/kg/injection, schedule: Q01DX001 (ip), vehicle: carboxymethylcellulose (CMC) 98 % of control | dose: 400.0 mg/kg/injection, schedule: Q01DX001 (ip), vehicle: saline 100 % of control and 116 % of control

CC(C(c1ccc(Br)cc1)c1ccccc1Cl)[N+](=O)[O-] (centres undefined)
inactive: [17] 95 % of control | [18] 86 % of control | [19] 101 % of control
